The results in this text go back to patent US6979673B1, “Method and compositions for modulating somatolactogenic functions” (Trustees of the University of Pennsylvania, priority 1999, dated 2005).

The test system of test [1] is Nb2 cells. The test can be described thus: PRL-driven proliferation of Nb2 cells (3H-thymidine). Format: cell-based, rat. The settings on record: for enhancement of PRL-driven growth vs cultures that received only PRL: Nb2 cells, biphasic, most prominent at 5–10 mM CypB and 50 pM PRL. How it is done: (§1) The effect of exogenous CypB on PRL-driven proliferation was examined with the rat Nb2 T-cell and the human T47D breast cancer line. […] This dose-dependent biphasic effect was most prominent at physiologic concentrations ([…]) of CypB and PRL (50 pM) found in human serum. […] To determine the effect of CypB on cellular growth driven by the larger family of cytokines, to which PRL belongs, proliferation driven by interleukin-2 (IL-2), IL-3 and GH was examined.
(§2) Nb2-cells (5×10^4; PRL-dependent, rat T-lymphoma) were plated in each well of 96 well plates in a defined DMEM-serum free medium (0.1 mM 2-mercaptoethanol, 1% penicillin/streptomycin, and 1% ITS+ (Calbiochem)). Cells were rested for 24 hours at 37° C. in this defined medium in the absence of PRL before the addition of 5–500 pM PRL (either as human pituitary isolated PRL, National Hormone and Pituitary Program, NIDDK; recombinant human PRL from E. coli, Genzyme; or recombinant human PRL from Drosophila S2 cells) alone or premixed with 1–2000 fold excess of purified CypB. Parallel studies were performed using human pituitary-derived GH (National Hormone and Pituitary Program, NIDDK). Cultures were incubated for 48 hours at 37° C. and proliferation was evaluated by the addition of 0.5 μCi of ^3H-thymidine for four hours followed by harvesting and scintillography. When stimulated with PRL alone, Nb2 cells yield sigmoid shaped growth curves that plateau at approximately 2 ng PRL/ml.

Test [2] concerns the target T1, PRL (Homo sapiens, UniProt P01236).
T1 sequence (P01236 29-227): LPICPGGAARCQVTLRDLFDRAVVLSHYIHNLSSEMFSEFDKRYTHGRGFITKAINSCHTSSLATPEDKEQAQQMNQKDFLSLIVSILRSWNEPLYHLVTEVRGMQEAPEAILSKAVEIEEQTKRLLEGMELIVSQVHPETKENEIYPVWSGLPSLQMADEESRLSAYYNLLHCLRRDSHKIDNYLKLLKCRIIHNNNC
The test can be described thus: Co-immunoprecipitation of admixed purified epitope-tagged proteins. Format: binding. On the set-up: Full length PRL cDNA was generated by PCR; made in house; host or cells: Drosophila S2 cells (pAc5/V5-HisA). To be noted: reducing agent or divalent cation facilitated the interaction.

The target of test [3] is T1, PRL. The test can be described thus: Co-immunoprecipitation of PRL with CypB from human serum. Format: binding.
The subject of test [4] is T47D human breast cancer cells. The test can be described thus: Nuclear retrotranslocation of PRL, anti-PRL indirect immunofluorescence. Type of test: cell-based. The settings on record: added to defined T47D culture medium; CypB added to EGF-containing medium. On the procedure: Experiments were performed to examine the ability of CypB to enhance nuclear retrotranslocation of PRL, and thereby PRL-driven proliferation.
The role of this sequence in the CypB-mediated retrotranslocation of PRL, and its associated enhancement of growth was tested by mutagenic approaches. The putative nuclear localization sequence of CypB was deleted in the mutant CypB-NT.

The subject of test [5] is Nb2 cells. The test can be described thus: GH-driven proliferation. Format: cell-based, rat. To be noted: physiological concentrations of CypB. On the procedure:
as §1
as §2, with “When stimulated with PRL alone, Nb2 cells yield sigmoid shaped growth curves that plateau at approximately 2 ng PRL/ml.” left out

In test [6] the test system is IL-3-driven proliferation. The test can be described thus: IL-3-driven proliferation. Type of test: cell-based. To be noted: varying concentration of CypB. On the procedure:
as §1

In test [7] the test system is IL-2-driven proliferation. The test can be described thus: IL-2-driven proliferation. Type of test: cell-based. To be noted: varying concentration of CypB. How it is done:
as §1

For the substance “CypA: recombinant form of the highly homologous cyclophilin family member CypA [reference compound]”, the “enhancement of PRL-driven growth vs cultures that received only PRL” value with Nb2 cells [1] was “did not result in any potentiation”. The “direct interaction with PRL (co-immunoprecipitation)” value with PRL [2] is “failed to interact”.
Take “CypB: cyclophilin B, peptidyl prolyl isomerase, GenBank NM 000942, SEQ ID NO: 1; recombinant His-tagged”: in the test with PRL [3], the “co-immunoprecipitation of PRL from human serum” value was “direct co-immunoprecipitation of PRL with CypB from human serum”. Also, the “T47D nuclei exhibiting anti-PRL immunofluorescence” value in test [4] is reported as 95–100%. In addition, the “enhancement of GH-driven proliferation vs GH alone” value in the test with Nb2 cells [5] is recorded as “forty-fold”. Moreover, the “effect on IL-3-driven proliferation” value in test [6] is given as “Neither IL-2- nor IL-3-driven proliferation was altered”. Besides, in test [7], the “effect on IL-2-driven proliferation” value is “Neither IL-2- nor IL-3-driven proliferation was altered”. Moreover, the “enhancement of PRL-driven growth vs cultures that received only PRL” value in the test on Nb2 cells [1] is “eight-fold”. Further, in the test on Nb2 cells [1] (cell line not given), the “enhancement of PRL-induced proliferation” value is reported as “failed to enhance”. Moreover, the “direct interaction with PRL (co-immunoprecipitation)” value with PRL [2] was “interact directly”.
